Here are results for twelve compounds from ChEMBL document CHEMBL1201862, “PubChem BioAssay data set” (2004).

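Grown in 96-well plates, cells were treated for 48 hours with each compound at five concentrations. Insufficient inhibition: endpoint recorded as highest concentration tested. Here, GI50 denotes the concentration required for 50% inhibition of growth.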 Calls of active or inactive are those of the source. Cut-off read from the data, not from the text of the source: active = GI50 up to about 1.1 µM and inactive = higher.

Some test systems named below: OVCAR-4; COLO 205; UACC-257; OVCAR-5; HOP-92; SF-539; SR; HT-29; NCI-H23; EKVX; OVCAR-3; Malme-3M; MOLT-4; SF-268; KM12; HCC 2998; SNB-19; HCT-15; NCI-H226.
Holding throughout (assay): NCI tumour cell line growth inhibition, 48 h

Turning to `O=c1[nH]c2nc3ccccc3c(=O)n2/c1=C/c1ccccc1`, the GI50 is > 100 µM (inactive) with OVCAR-4; 33.1 µM (inactive) in the assay on COLO 205; 23.7 µM (inactive) in the assay on UACC-257; > 100 µM (inactive) with OVCAR-5; 20.7 µM (inactive) with HOP-92; 22.5 µM (inactive) in the assay on SF-539. The GI50 is > 100 µM (inactive) in the assay on SR; 17.5 µM (inactive) in the assay on HT-29; 30.3 µM (inactive) in the assay with NCI-H23; 35.3 µM (inactive) in the assay with EKVX; 22 µM (inactive) in the assay on OVCAR-3; 38.6 µM (inactive) with Malme-3M. Further, the GI50 in the assay on MOLT-4 was 95.5 µM (inactive); with SF-268, 20.6 µM (inactive); in the assay on KM12 it was 38.5 µM (inactive); in the assay with HCC 2998, 31 µM (inactive); in the assay on SNB-19 it was 19.6 µM (inactive); in the assay with HCT-15 it was 29.8 µM. The GI50 in the assay with NCI-H226 was 18.7 µM (inactive).

As to `C=C(C(N)=O)c1ccc([N+](=O)[O-])o1`, the GI50 was 11.6 µM (inactive) in the assay on OVCAR-4; 3.31 µM (inactive) in the assay on COLO 205; 8.51 µM (inactive) in the assay on UACC-257; 18.7 µM (inactive) with OVCAR-5; 6.49 µM (inactive) in the assay on HOP-92; 12.6 µM (inactive) in the assay with SF-539. The GI50 with SR was 9.46 µM (inactive); in the assay on HT-29, 11.9 µM (inactive); in the assay on NCI-H23, 5.02 µM (inactive); in the assay with EKVX, 18.1 µM (inactive); in the assay with OVCAR-3 it was 8.36 µM (inactive); in the assay on Malme-3M, 2.2 µM (inactive). Besides, the GI50 is 3.84 µM (inactive) in the assay with MOLT-4; 8.36 µM (inactive) with SF-268; 16.7 µM (inactive) in the assay on KM12; 16.7 µM (inactive) in the assay on HCC 2998; 37.1 µM (inactive) with SNB-19; 9.02 µM in the assay with HCT-15. The GI50 in the assay with NCI-H226 is 20.3 µM (inactive).

As for `COC(=O)C(Cc1ccccc1)NC(=O)CSc1nnc(COc2ccc(Cl)cc2)n1-c1ccccc1` (configuration not stated), the GI50 in the assay with OVCAR-4 is 21.4 µM (inactive); with COLO 205 it was 20.4 µM (inactive); in the assay with UACC-257 it was 13.1 µM (inactive); in the assay on OVCAR-5, 24.8 µM (inactive); in the assay on HOP-92 it was 26.4 µM (inactive); in the assay on SF-539 it was 22.4 µM (inactive). The GI50 with SR was 5.41 µM (inactive); in the assay on HT-29, 23.4 µM (inactive); in the assay on NCI-H23, 22.3 µM (inactive); in the assay on Malme-3M, 19.7 µM (inactive); in the assay on MOLT-4, 34 µM (inactive); with SF-268 it was 25.7 µM (inactive). Moreover, the GI50 is 37.7 µM (inactive) in the assay with KM12; 5.61 µM (inactive) with HCC 2998; 49.9 µM (inactive) with SNB-19; 35.2 µM in the assay with HCT-15; 40.6 µM (inactive) with NCI-H226.

Take `CC(C(N)=O)N(C)C(=O)c1cnc2ccccc2c1` (configuration not stated): the GI50 in the assay with OVCAR-4, in the assay on COLO 205, in the assay with UACC-257, with OVCAR-5, in the assay with HOP-92 and in the assay on SF-539 was > 100 µM (inactive) throughout. Besides, the GI50 in the assay on SR was > 100 µM (inactive); in the assay with HT-29, > 100 µM (inactive); with NCI-H23, > 10 µM (inactive); in the assay with OVCAR-3, > 100 µM (inactive); with Malme-3M it was > 100 µM (inactive); in the assay with MOLT-4 it was > 100 µM (inactive). The GI50 in the assay with SF-268 was > 10 µM (inactive); in the assay with KM12, > 100 µM (inactive); in the assay on HCC 2998 it was > 100 µM (inactive); in the assay on SNB-19, > 100 µM (inactive); in the assay on HCT-15, > 100 µM; with NCI-H226 it was > 100 µM (inactive).

Turning to `NC(=O)SCC(=O)Nc1ccc2ncccc2c1`, the GI50 in the assay with OVCAR-4 was > 100 µM (inactive); in the assay on COLO 205, > 100 µM (inactive); with UACC-257, 71.3 µM (inactive); in the assay with OVCAR-5, > 100 µM (inactive); with HOP-92, 35.2 µM (inactive); in the assay with SF-539, 28.1 µM (inactive). The GI50 is 49 µM (inactive) in the assay on SR; > 100 µM (inactive) in the assay on HT-29; > 100 µM (inactive) in the assay on NCI-H23; > 100 µM (inactive) in the assay with EKVX; 35.5 µM (inactive) in the assay with OVCAR-3; 56.1 µM (inactive) in the assay with Malme-3M. For the same compound, the GI50 in the assay on SF-268 was 49.1 µM (inactive); with KM12 it was 45.4 µM (inactive); in the assay with HCC 2998, > 100 µM (inactive); with SNB-19 it was 40.6 µM (inactive); in the assay with HCT-15, 55.1 µM; with NCI-H226, > 100 µM (inactive).

Consider `CSC1=C(C#N)C(=O)N(c2ccc(Cl)cc2)C(=O)C1C#N` (configuration not stated), for which the GI50 in the assay on OVCAR-4 was > 100 µM (inactive); in the assay on COLO 205, > 100 µM (inactive); with UACC-257 it was > 100 µM (inactive); in the assay with OVCAR-5, > 100 µM (inactive); in the assay with HOP-92 it was 28.9 µM (inactive); in the assay on SF-539 it was > 100 µM (inactive). In addition, the GI50 is 15.4 µM (inactive) in the assay with SR; > 100 µM (inactive) with HT-29; > 100 µM (inactive) with NCI-H23; > 100 µM (inactive) in the assay on EKVX; > 100 µM (inactive) in the assay on OVCAR-3; > 100 µM (inactive) in the assay with Malme-3M. The GI50 is 97.5 µM (inactive) in the assay on MOLT-4; > 100 µM (inactive) in the assay with SF-268; > 100 µM (inactive) with HCC 2998; > 100 µM (inactive) with SNB-19; > 100 µM with HCT-15; > 100 µM (inactive) with NCI-H226.

For the compound `O=C(O)/C=C/c1ccc2c(c1)CC1(Cc3ccccc3C1)C2`, the GI50 in the assay on OVCAR-4 was 39 µM (inactive); with COLO 205, 27.8 µM (inactive); with UACC-257, > 100 µM (inactive); in the assay with OVCAR-5 it was > 100 µM (inactive); with HOP-92 it was 52.2 µM (inactive); in the assay with SF-539, 96.4 µM (inactive). Also, the GI50 was 23.2 µM (inactive) in the assay on SR; 39.8 µM (inactive) in the assay with HT-29; 57 µM (inactive) in the assay with NCI-H23; > 100 µM (inactive) in the assay with EKVX; 27.7 µM (inactive) in the assay on OVCAR-3; 78.2 µM (inactive) in the assay with Malme-3M. Further, the GI50 with MOLT-4 was 29.5 µM (inactive); in the assay on KM12, 55.8 µM (inactive); in the assay on HCC 2998, 93.8 µM (inactive); with HCT-15, 40.3 µM; with NCI-H226, 33.7 µM (inactive).

`CCOC(=O)/C(C#N)=C/c1coc2cc(C)cc(C)c2c1=O`: the GI50 in the assay on COLO 205 is > 100 µM (inactive); with UACC-257, > 100 µM (inactive); with OVCAR-5, > 100 µM (inactive); with HOP-92, 95.1 µM (inactive); in the assay on SF-539, > 100 µM (inactive); with SR, > 100 µM (inactive). The GI50 was > 100 µM (inactive) in the assay with HT-29; > 100 µM (inactive) with NCI-H23; > 100 µM (inactive) in the assay with EKVX; 64.9 µM (inactive) with OVCAR-3; 45.3 µM (inactive) in the assay with Malme-3M; > 100 µM (inactive) with MOLT-4. Further, the GI50 in the assay on SF-268 was 66.4 µM (inactive); with KM12, > 100 µM (inactive); in the assay on HCC 2998, > 100 µM (inactive); in the assay with SNB-19, > 100 µM (inactive); in the assay with HCT-15, > 100 µM; in the assay on NCI-H226, > 100 µM (inactive).

Take `N#CC(C#N)=C/C=C/c1c(Cl)cccc1Cl`: the GI50 in the assay on OVCAR-4 was 1.72 µM (inactive); in the assay with COLO 205, 1.73 µM (inactive); in the assay on UACC-257 it was 1.58 µM (inactive); in the assay with HOP-92, 2.42 µM (inactive); in the assay with SF-539 it was 1.28 µM (inactive); with SR, 1.7 µM (inactive). The GI50 was 1.7 µM (inactive) in the assay on HT-29; 1.47 µM (inactive) with NCI-H23; 3.33 µM (inactive) in the assay with EKVX; 2.13 µM (inactive) in the assay with OVCAR-3; 1.73 µM (inactive) with Malme-3M; 1.88 µM (inactive) in the assay with MOLT-4. Also, the GI50 is 1.92 µM (inactive) in the assay on SF-268; 1.58 µM (inactive) in the assay with KM12; 1.84 µM (inactive) in the assay on HCC 2998; 3.78 µM (inactive) with SNB-19; 1.91 µM in the assay with HCT-15; 2.45 µM (inactive) in the assay with NCI-H226.

As to `CC1=NN(c2cccc(Cl)c2)C2(C1=Cc1ccc(O)cc1)C(Cl)C(=O)N2c1nc2ccccc2s1` (configuration not stated), the GI50 was 22.6 µM (inactive) in the assay on OVCAR-4; 25.5 µM (inactive) with UACC-257; 29.4 µM (inactive) with OVCAR-5; 15.1 µM (inactive) in the assay on HOP-92; 35.4 µM (inactive) with SF-539; 19.9 µM (inactive) in the assay on SR. For the same compound, the GI50 is 21.7 µM (inactive) in the assay with HT-29; 16 µM (inactive) in the assay on NCI-H23; 29.4 µM (inactive) with EKVX; 26 µM (inactive) in the assay on OVCAR-3; 14.2 µM (inactive) in the assay on MOLT-4; 19.6 µM (inactive) in the assay with SF-268. Besides, the GI50 in the assay on KM12 was 22.4 µM (inactive); in the assay on HCC 2998 it was 18.8 µM (inactive); in the assay with HCT-15, 15.5 µM; with NCI-H226 it was 27.2 µM (inactive).

On to `C1COCCN1.CN(C)c1ccc(-c2c(C#N)c(N)nc(S)c2C#N)cc1`, for which the GI50 in the assay with OVCAR-4 is 35 µM (inactive); with COLO 205 it was > 100 µM (inactive); with UACC-257 it was 82.4 µM (inactive); in the assay with OVCAR-5, > 100 µM (inactive); in the assay with HOP-92, 21.8 µM (inactive); in the assay with SF-539, > 100 µM (inactive). The GI50 in the assay with SR was 23.2 µM (inactive); in the assay with HT-29, > 100 µM (inactive); in the assay on NCI-H23, 60 µM (inactive); in the assay with EKVX, > 100 µM (inactive); in the assay on OVCAR-3, > 100 µM (inactive); in the assay with Malme-3M, > 100 µM (inactive). Also, the GI50 with SF-268 was > 100 µM (inactive); with HCC 2998 it was 56.1 µM (inactive); in the assay with SNB-19 it was 39.9 µM (inactive); with HCT-15, > 100 µM; in the assay on NCI-H226, 22.6 µM (inactive).

On to `CC(=O)C1=C(C)NC(=C(C#N)C#N)C(C#N)=C1`, for which the GI50 in the assay with OVCAR-4 is 3.81 µM (inactive); in the assay with COLO 205 it was > 100 µM (inactive); in the assay with OVCAR-5 it was > 100 µM (inactive); in the assay with HOP-92 it was > 100 µM (inactive); in the assay on SF-539, > 100 µM (inactive); in the assay on SR, > 100 µM (inactive). Further, the GI50 in the assay with HT-29, in the assay with NCI-H23, in the assay with EKVX, in the assay on Malme-3M, with MOLT-4 and with SF-268 was > 100 µM (inactive) in each case. Besides, the GI50 in the assay with KM12 is > 100 µM (inactive); in the assay on HCC 2998, > 100 µM (inactive); in the assay with SNB-19, > 100 µM (inactive); in the assay on HCT-15, > 100 µM; in the assay on NCI-H226 it was > 100 µM (inactive).
